Data reported in paper PMC8682738, “Constrained peptides mimic a viral suppressor of RNA silencing” (Nucleic Acids Research, 2021).
Positions of bridges follow the written chain, without caps; N, C: chain ends. Non-standard residues stand in square brackets, D forms with d. Residues, ends and D or L forms follow the SMILES beside them. *: point of attachment. FITC = O=C1OC2(c3ccc(O)cc3Oc3cc(O)ccc32)c2ccc(NC(=S)*)cc21; R8 = C=CCCCCCC[C@@](C)(N)C(=O)O; S5 = C=CCCC[C@](C)(N)C(=O)O; AEEA = NCCOCCOCC(=O)O

Assays:
pal-DNA = assay: EMSA with ds DNA analog of pal-RNA; assay type: binding; details: fluorescein-labeled peptide 3 μM, oligonucleotide 9 μM
Description: Electrophoretic mobility shift assays (EMSAs) were performed using a Bio-Rad Mini-Protean gel system paired with a direct current (DC) power source (PowerPac™ HC, Bio-Rad). […] After incubation, bound RNA was resolved from peptide-free RNA using 10% non-denaturing polyacrylamide gels at 120 V in running buffer (25 mM Tris (pH 8.0), 200 mM glycine, 20 mM NaCl) at 4°C for 1 h. Visualization of fluorescent gel-bound species was conducted using a Typhoon Trio + fluorescence scanner (GE Healthcare Life Sciences). For nucleic acid visualization, gels were stained using 2 μl of SYBR™ gold nucleic acid gel dye (Molecular Probes) in 20 ml of TAE buffer (40 mM Tris, 1 mM EDTA, 20 mM acetic acid) for 45 min at RT before being visualized using a FluorChem™ gel documentation system (Alpha Innotech). To assess B3 binding to different ds RNA sequences (Supplementary Figure S20), 6 μl solutions containing hairpin RNA (c = 1 μM) and fluorescein-labeled B3 (c = 2 μM) were incubated in binding buffer (TAE and 10% glycerol) at RT for 1 h, and then resolved using 15% non-denaturing polyacrylamide gels (acrylamide/bis-acrylamide (19:1) in TAE) at 150 V in running buffer (TAE) at 4°C for 1.5 h. Visualization of fluorescent gel-bound species was conducted using a Bio-Rad ChemiDoc (Bio-Rad). […]

K562 cells = assay: Live cell confocal microscopy; assay type: cell-based, human; details: fluorescein-labeled peptide 1 μM, 30 min, 37°C
Description: Non-adherent K562 cells were counted and collected in 1.5 ml Eppendorf tubes at 30 000 cells per tube. After a wash, cells were re-suspended in 200 μl of phenol-red free media containing 5% FCS and fluorescein-labeled peptides (c(peptide) = 1 μM, t = 30 min) in the Eppendorf tubes at 37°C with vertical rotation to avoid cell pelleting. After incubation, cells were washed once with phenol-red free media, re-suspended again in the same media, and transferred into the wells of an 8-chamber μ-slide (Ibidi). Cells were immediately imaged at 37°C with an SP5 Laser Scanning Confocal Microscope (Leica). Fluorescein was excited with an argon ion laser at wavelength of 488 nm and fluorescence was detected in the range 505–530 nm.

pre-miR-21 = assay: EMSA with pre-miR-21; assay type: binding; details: fluorescein-labeled peptide 6 μM, pre-miR-21 3 μM
Description: Electrophoretic mobility shift assays (EMSAs) were performed using a Bio-Rad Mini-Protean gel system paired with a direct current (DC) power source (PowerPac™ HC, Bio-Rad). Typically, 6 μl solutions containing ds RNA (c = 3 μM) and fluorescein-labeled peptide (c = 6 μM) were incubated in binding buffer (10 mM Tris (pH 8.0), 0.5 mM EDTA, 12.5% glycerol and 150 mM KCl) at 4°C for 1 h. After incubation, bound RNA was resolved from peptide-free RNA using 10% non-denaturing polyacrylamide gels at 120 V in running buffer (25 mM Tris (pH 8.0), 200 mM glycine, 20 mM NaCl) at 4°C for 1 h. Visualization of fluorescent gel-bound species was conducted using a Typhoon Trio + fluorescence scanner (GE Healthcare Life Sciences). For nucleic acid visualization, gels were stained using 2 μl of SYBR™ gold nucleic acid gel dye (Molecular Probes) in 20 ml of TAE buffer (40 mM Tris, 1 mM EDTA, 20 mM acetic acid) for 45 min at RT before being visualized using a FluorChem™ gel documentation system (Alpha Innotech). To assess B3 binding to different ds RNA sequences (Supplementary Figure S20), 6 μl solutions containing hairpin RNA (c = 1 μM) and fluorescein-labeled B3 (c = 2 μM) were incubated in binding buffer (TAE and 10% glycerol) at RT for 1 h, and then resolved using 15% non-denaturing polyacrylamide gels (acrylamide/bis-acrylamide (19:1) in TAE) at 150 V in running buffer (TAE) at 4°C for 1.5 h. […]

[1] = tested on: K562 human leukemia cells; assay: Peptide uptake by flow cytometry; assay type: cell-based; details: fluorescein-labeled peptide 1 μM, 90 min
Description: 2 × 10^6 K562 cells were plated per well in 48-well plates in presence of fluorescein-labeled peptides (c = 1 μM, 0.5% DMSO) in a total volume of 300 μl. After 90 min, cells were treated with proteinase K (2 μg·ml^−1) for 10 min to remove extracellular peptides. Cells were extensively washed and total uptake of labeled peptide was measured by flow cytometry (Cytoflex, Beckman Coulter with the CytExpert software version 2.3). For each peptide, 20 000 events per sample were collected with >85% viable cells (forward/side scatter) that were considered for analysis using a 525/40 nm filter. DMSO was used as a control to distinguish general DMSO-related and peptide-specific effects. Each experiment was performed in triplicate.

| SMILES | binding to ds DNA analog of pal-RNA in EMSA (pal-DNA) | cell permeability by live cell confocal microscopy (K562 cells) | binding to pre-miR-21 in EMSA (pre-miR-21) | fold increase in uptake relative to wt33 [1] | cellular uptake (in words) [1] |
| --- | --- | --- | --- | --- | --- |
| CC(C)C[C@H](NC(=O)[C@]1(C)CCCC=CCCC[C@](C)(NC(=O)[C@H](CCC(=O)O)NC(=O)[C@H](CO)NC(=O)[C@@H]2CCCN2C(=O)[C@H](CO)NC(=O)[C@H](CCCCN)NC(=O)[C@H](Cc2c[nH]cn2)NC(=O)CNC(=O)[C@H](CCCNC(=N)N)NC(=O)[C@]2(C)CCCC=CCCC[C@](C)(NC(=O)[C@H](CCCCN)NC(=O)[C@H](Cc3c[nH]cn3)NC(=O)[C@H](CCCNC(=N)N)NC(=O)[C@H](CCCCN)NC(=O)[C@H](CCCNC(=N)N)NC(=O)[C@H](CCC(N)=O)NC(=O)[C@H](C)NC(=O)[C@H](CCC(N)=O)NC(=O)[C@H](CCCCN)NC(=O)[C@H](CCCCN)NC(=O)COCCOCCNC(=S)Nc3ccc4c(c3)C(=O)OC43c4ccc(O)cc4Oc4cc(O)ccc43)C(=O)N[C@@H](CC(N)=O)C(=O)N[C@@H](CCCNC(=N)N)C(=O)N[C@@H](CCCCN)C(=O)N2)C(=O)N[C@@H](CCCNC(=N)N)C(=O)N[C@@H](CCCNC(=N)N)C(=O)N[C@@H](CO)C(=O)N1)C(=O)N[C@@H](Cc1c[nH]c2ccccc12)C(=O)N[C@@H](Cc1c[nH]cn1)C(=O)N[C@@H](C)C(=O)N[C@@H](CCCNC(=N)N)C(N)=O [B3] ({FITC-AEEA}-KKQAQRKRHK[S5]NRK[S5]RGHKSPSE[S5]RRS[S5]LWHAR-NH2; staple 11-15, 24-28) | did not bind | confirming their cell permeability | indicated pre–miRNA-binding |  |  |
| CC(C)C[C@@H]1NC(=O)[C@@](C)(NC(=O)[C@H](CO)NC(=O)[C@H](CCCNC(=N)N)NC(=O)[C@H](CCCNC(=N)N)NC(=O)[C@H](CCC(N)=O)NC(=O)[C@H](CCC(=O)O)NC(=O)[C@H](CO)NC(=O)[C@@H]2CCCN2C(=O)[C@H](CO)NC(=O)[C@H](CCCCN)NC(=O)[C@H](Cc2c[nH]cn2)NC(=O)CNC(=O)[C@H](CCCNC(=N)N)NC(=O)[C@H](CCC(=O)O)NC(=O)[C@H](CCCCN)NC(=O)[C@H](CCCNC(=N)N)NC(=O)[C@H](CC(N)=O)NC(=O)[C@]2(C)CCCC=CCCCCCC[C@@](C)(NC(=O)[C@H](CCC(N)=O)NC(=O)[C@H](CCCCN)NC(=O)[C@H](CCCCN)NC(=O)COCCOCCNC(=S)Nc3ccc4c(c3)C(=O)OC43c4ccc(O)cc4Oc4cc(O)ccc43)C(=O)N[C@@H](CCC(N)=O)C(=O)N[C@@H](CCCNC(=N)N)C(=O)N[C@@H](CCCCN)C(=O)N[C@@H](CCCNC(=N)N)C(=O)N[C@@H](Cc3c[nH]cn3)C(=O)N[C@@H](CCCCN)C(=O)N2)CCCC=CCCC[C@@](C)(C(=O)N[C@@H](CCCNC(=N)N)C(N)=O)NC(=O)[C@H](Cc2c[nH]cn2)NC(=O)[C@H](Cc2c[nH]c3ccccc23)NC1=O [C1] ({FITC-AEEA}-KKQ[R8]QRKRHK[S5]NRKERGHKSPSEQRRS[S5]LWH[S5]R-NH2; staple 4-11, 28-32) | did not bind | confirming their cell permeability | indicated pre–miRNA-binding | 264 fold |  |
| CC(C)C[C@@H]1NC(=O)[C@H](CCC(=O)O)NC(=O)[C@H](CO)NC(=O)[C@@](C)(NC(=O)[C@H](CCCNC(=N)N)NC(=O)[C@H](CCC(N)=O)NC(=O)[C@H](CCC(=O)O)NC(=O)[C@H](CO)NC(=O)[C@@H]2CCCN2C(=O)[C@H](CO)NC(=O)[C@H](CCCCN)NC(=O)[C@H](Cc2c[nH]cn2)NC(=O)[C@]2(C)CCCC=CCCCCCC[C@@](C)(NC(=O)[C@H](Cc3c[nH]cn3)NC(=O)[C@H](CCCNC(=N)N)NC(=O)[C@H](CCCCN)NC(=O)[C@H](CCCNC(=N)N)NC(=O)[C@H](CCC(N)=O)NC(=O)[C@H](C)NC(=O)[C@H](CCC(N)=O)NC(=O)[C@H](CCCCN)NC(=O)[C@H](CCCCN)NC(=O)COCCOCCNC(=S)Nc3ccc4c(c3)C(=O)OC43c4ccc(O)cc4Oc4cc(O)ccc43)C(=O)N[C@@H](CC(C)C)C(=O)N[C@@H](CC(N)=O)C(=O)N[C@@H](CCCNC(=N)N)C(=O)N[C@@H](CCCCN)C(=O)N[C@@H](CCC(=O)O)C(=O)N[C@@H](CCCNC(=N)N)C(=O)N2)CCCC=CCCC[C@@](C)(C(=O)N[C@@H](Cc2c[nH]cn2)C(=O)N[C@@H](C)C(=O)N[C@@H](CCCNC(=N)N)C(N)=O)NC1=O [D1] ({FITC-AEEA}-KKQAQRKRH[R8]LNRKER[S5]HKSPSEQR[S5]SEL[S5]HAR-NH2; staple 10-17, 26-30) |  | confirming their cell permeability |  |  | considerably enhanced cellular uptake |
